Measurements published in ChEMBL document CHEMBL5346907, “Discovery of a novel oral type Ⅰ CDK8 inhibitor against acute myeloid leukemia” (Eur J Med Chem, 2023).
pIC50: −log10 of the molar value. Active and inactive are the calls of the source. No cut-off for these calls is given here.

Columns and labels:
[1] = MRT in Sprague-Dawley rat at 10 mg/kg, po; format: ADME, organism-based; details: in vivo
[2] = molecular target: Cyclin-dependent kinase 2/cyclin E1 (Homo sapiens, UniProt P24941); test: Inhibition of CDK2/Cyclin E1 (unknown origin) preincubated for 10 mins followed by substrate addition measured for 60 to 120 mins by HTRF assay; format: protein-complex assay
[3] = Clearance in Sprague-Dawley rat at 10 mg/kg, po; format: ADME, organism-based; details: in vivo
[4] = molecular target: Tyrosine-protein kinase Lck (Homo sapiens) (UniProt P06239); test: Inhibition of LCK (unknown origin) at 1 uM preincubated for 10 mins followed by substrate addition measured for 60 to 120 mins by HTRF assay relative to control; details: time 70-130 min
[5] = molecular target: Non-receptor tyrosine-protein kinase TYK2 (Homo sapiens) (UniProt P29597); test: Inhibition of TYK2 (unknown origin) at 1 uM preincubated for 10 mins followed by substrate addition measured for 60 to 120 mins by HTRF assay relative to control; details: time 70-130 min
[6] = molecular target: Ephrin type-A receptor 3 (Homo sapiens) (UniProt P29320); test: Inhibition of EPHA3 (unknown origin) at 1 uM preincubated for 10 mins followed by substrate addition measured for 60 to 120 mins by HTRF assay relative to control; details: time 70-130 min
[7] = molecular target: Ephrin type-B receptor 3 (Homo sapiens) (UniProt P54753); test: Inhibition of EPHB3 (unknown origin) at 1 uM preincubated for 10 mins followed by substrate addition measured for 60 to 120 mins by HTRF assay relative to control; details: time 70-130 min
Sequence of Ephrin type-B receptor 3 (Homo sapiens) (P54753 whole entry): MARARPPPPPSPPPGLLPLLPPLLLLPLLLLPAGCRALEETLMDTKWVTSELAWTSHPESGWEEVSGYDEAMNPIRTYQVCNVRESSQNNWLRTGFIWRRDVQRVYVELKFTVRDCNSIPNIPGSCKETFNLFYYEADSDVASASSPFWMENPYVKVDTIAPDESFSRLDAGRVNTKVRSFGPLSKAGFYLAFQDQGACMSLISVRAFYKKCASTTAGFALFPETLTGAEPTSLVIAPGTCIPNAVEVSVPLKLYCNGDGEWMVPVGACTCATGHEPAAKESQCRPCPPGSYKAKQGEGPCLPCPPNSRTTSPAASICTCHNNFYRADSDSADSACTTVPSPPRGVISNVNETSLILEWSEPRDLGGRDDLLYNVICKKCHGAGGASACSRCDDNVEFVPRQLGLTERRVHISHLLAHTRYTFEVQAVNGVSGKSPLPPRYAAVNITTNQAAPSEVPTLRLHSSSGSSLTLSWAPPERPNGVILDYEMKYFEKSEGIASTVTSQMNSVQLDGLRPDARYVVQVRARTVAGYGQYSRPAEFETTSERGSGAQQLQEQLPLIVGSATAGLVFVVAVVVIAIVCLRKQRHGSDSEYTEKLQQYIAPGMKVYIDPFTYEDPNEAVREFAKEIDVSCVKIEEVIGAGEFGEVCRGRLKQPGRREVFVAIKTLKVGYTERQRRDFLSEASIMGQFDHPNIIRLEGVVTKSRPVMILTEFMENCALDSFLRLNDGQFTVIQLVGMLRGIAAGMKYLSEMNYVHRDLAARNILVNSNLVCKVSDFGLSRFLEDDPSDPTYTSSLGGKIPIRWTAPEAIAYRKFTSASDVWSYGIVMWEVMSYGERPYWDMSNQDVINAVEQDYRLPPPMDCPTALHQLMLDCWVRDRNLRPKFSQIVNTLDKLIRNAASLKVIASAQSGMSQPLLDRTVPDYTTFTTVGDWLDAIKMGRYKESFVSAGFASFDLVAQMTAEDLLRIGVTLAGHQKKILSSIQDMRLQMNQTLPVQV

[8] = molecular target: Tyrosine-protein kinase Fes/Fps (Homo sapiens) (UniProt P07332); test: Inhibition of FES (unknown origin) at 1 uM preincubated for 10 mins followed by substrate addition measured for 60 to 120 mins by HTRF assay relative to control; details: time 70-130 min
[9] = molecular target: Cyclin-dependent kinase 5/CDK5 activator 1 (Homo sapiens) (UniProt Q00535+Q15078); test: Inhibition of CDK5/p35NCK (unknown origin) at 1 uM preincubated for 10 mins followed by substrate addition measured for 60 to 120 mins by HTRF assay relative to control; format: protein-complex assay; details: time 70-130 min
Sequence of Cyclin-dependent kinase 5/CDK5 activator 1 (Homo sapiens) (Q00535 whole entry): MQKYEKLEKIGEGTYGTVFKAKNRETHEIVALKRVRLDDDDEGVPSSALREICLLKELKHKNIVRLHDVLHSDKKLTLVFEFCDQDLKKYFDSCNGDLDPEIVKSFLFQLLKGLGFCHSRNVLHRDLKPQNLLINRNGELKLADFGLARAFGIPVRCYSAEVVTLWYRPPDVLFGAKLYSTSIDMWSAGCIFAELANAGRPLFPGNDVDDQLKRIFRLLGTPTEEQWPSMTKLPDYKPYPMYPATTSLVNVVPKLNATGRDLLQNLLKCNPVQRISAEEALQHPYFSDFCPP
Sequence of Cyclin-dependent kinase 5/CDK5 activator 1 (Homo sapiens) (Q15078 99-307 partner limits assumed): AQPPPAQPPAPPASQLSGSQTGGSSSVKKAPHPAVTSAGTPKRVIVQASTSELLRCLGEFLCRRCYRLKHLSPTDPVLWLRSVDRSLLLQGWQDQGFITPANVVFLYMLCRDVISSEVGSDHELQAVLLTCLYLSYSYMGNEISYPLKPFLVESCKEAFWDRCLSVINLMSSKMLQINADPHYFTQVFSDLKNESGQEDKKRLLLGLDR

[10] = molecular target: Ephrin type-B receptor 2 (Homo sapiens) (UniProt P29323); test: Inhibition of EPHB2 (unknown origin) at 1 uM preincubated for 10 mins followed by substrate addition measured for 60 to 120 mins by HTRF assay relative to control; details: time 70-130 min
[11] = molecular target: Tyrosine-protein kinase ABL1 (Homo sapiens) (UniProt P00519); test: Inhibition of ABL1 (unknown origin) at 1 uM preincubated for 10 mins followed by substrate addition measured for 60 to 120 mins by HTRF assay relative to control; details: time 70-130 min
A549 = test: Antiproliferative activity against human A549 cells incubated for 48 hrs by CCK8 assay; format: functional
[12] = molecular target: Tyrosine-protein kinase Fgr (Homo sapiens) (UniProt P09769); test: Inhibition of FGR (unknown origin) at 1 uM preincubated for 10 mins followed by substrate addition measured for 60 to 120 mins by HTRF assay relative to control; details: time 70-130 min
MV4-11 = test: Antiproliferative activity against human MV4-11 cells incubated for 48 hrs by CCK8 assay; format: functional
[13] = molecular target: CDK2/Cyclin A2 (Homo sapiens) (UniProt P24941+P20248); test: Inhibition of CDK2/Cyclin A2 (unknown origin) at 1 uM preincubated for 10 mins followed by substrate addition measured for 60 to 120 mins by HTRF assay relative to control; format: protein-complex assay; details: time 70-130 min
CDK9/cyclin T1 = CDK9/cyclin T1 (Homo sapiens, UniProt P50750); test: Inhibition of CDK9/Cyclin T1 (unknown origin) preincubated for 10 mins followed by substrate addition measured for 60 to 120 mins by HTRF assay; format: protein-complex assay
[14] = Cmax in Sprague-Dawley rat at 2 mg/kg, iv; format: ADME, organism-based; set-up: dose 2 mg/kg, route iv; details: in vivo
[15] = molecular target: Fibroblast growth factor receptor 2 (Homo sapiens) (UniProt P21802); test: Inhibition of FGFR2 (unknown origin) at 1 uM preincubated for 10 mins followed by substrate addition measured for 60 to 120 mins by HTRF assay relative to control; details: time 70-130 min
Sequence of Fibroblast growth factor receptor 2 (Homo sapiens) (P21802 22-821 limits assumed): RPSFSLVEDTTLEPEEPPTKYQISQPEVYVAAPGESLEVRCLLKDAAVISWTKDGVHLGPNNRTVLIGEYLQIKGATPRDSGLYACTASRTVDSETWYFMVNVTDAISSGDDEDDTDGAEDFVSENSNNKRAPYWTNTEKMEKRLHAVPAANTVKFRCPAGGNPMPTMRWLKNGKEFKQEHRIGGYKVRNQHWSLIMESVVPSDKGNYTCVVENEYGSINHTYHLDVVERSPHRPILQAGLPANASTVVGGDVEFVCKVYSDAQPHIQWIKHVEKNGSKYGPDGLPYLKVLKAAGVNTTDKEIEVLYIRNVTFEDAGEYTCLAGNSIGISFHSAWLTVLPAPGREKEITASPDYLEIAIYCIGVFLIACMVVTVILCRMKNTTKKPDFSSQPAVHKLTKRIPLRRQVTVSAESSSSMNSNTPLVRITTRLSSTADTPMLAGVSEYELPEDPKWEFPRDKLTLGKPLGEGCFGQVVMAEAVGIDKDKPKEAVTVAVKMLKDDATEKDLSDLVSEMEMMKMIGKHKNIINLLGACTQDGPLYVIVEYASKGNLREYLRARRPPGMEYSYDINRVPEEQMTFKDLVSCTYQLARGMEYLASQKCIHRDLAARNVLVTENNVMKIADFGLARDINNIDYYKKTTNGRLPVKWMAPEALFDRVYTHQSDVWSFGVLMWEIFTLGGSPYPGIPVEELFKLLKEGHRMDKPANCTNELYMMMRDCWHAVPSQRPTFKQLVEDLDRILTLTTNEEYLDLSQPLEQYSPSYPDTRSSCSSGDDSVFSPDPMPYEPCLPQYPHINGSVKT

[16] = molecular target: T1, Cyclin-dependent kinase 8 (Homo sapiens, UniProt P49336); test: Binding affinity to CDK8 in human HCT-116 cells assessed as increase in degradation temperature of protein at 5 uM incubated for 6 hrs followed by heating for 4 mins by CETSA assay (reference value: 55 degreeC); format: cell-based; details: time 6.06 hrs
T1 sequence (P49336 whole entry): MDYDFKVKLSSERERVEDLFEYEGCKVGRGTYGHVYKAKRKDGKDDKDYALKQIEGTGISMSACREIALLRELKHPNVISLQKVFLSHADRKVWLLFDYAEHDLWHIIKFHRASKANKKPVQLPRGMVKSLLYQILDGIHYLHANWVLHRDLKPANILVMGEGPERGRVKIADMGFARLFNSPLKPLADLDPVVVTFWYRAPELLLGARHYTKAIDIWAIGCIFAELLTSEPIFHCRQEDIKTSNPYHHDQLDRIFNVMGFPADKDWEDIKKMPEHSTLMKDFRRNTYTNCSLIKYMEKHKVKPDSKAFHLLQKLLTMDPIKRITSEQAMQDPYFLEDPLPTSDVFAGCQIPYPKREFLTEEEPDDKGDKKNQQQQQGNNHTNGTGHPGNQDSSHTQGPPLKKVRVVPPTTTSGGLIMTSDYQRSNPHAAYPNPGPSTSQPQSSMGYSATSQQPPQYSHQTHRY

[17] = molecular target: T1, Cyclin-dependent kinase 8; test: Binding affinity to CDK8 in human HCT-116 cells upto 4 uM incubated for 12 hrs by biotin pull down based Western blot analysis; format: cell-based
[18] = molecular target: Activated CDC42 kinase 1 (Homo sapiens) (UniProt Q07912); test: Inhibition of ACK (unknown origin) at 1 uM preincubated for 10 mins followed by substrate addition measured for 60 to 120 mins by HTRF assay relative to control; details: time 70-130 min
C1498 = test: Downregulation of STAT5 S726 expression in mouse C1498 cells allografted in AML Balb/C mouse model administered orally daily for 15 days measured after 3 weeks by Western blot analysis; format: functional, cell-based; details: dose 40-80 mg/kg, route po, time 15.0 day
[19] = molecular target: Ephrin type-A receptor 7 (Homo sapiens) (UniProt Q15375); test: Inhibition of EPHA7 (unknown origin) at 1 uM preincubated for 10 mins followed by substrate addition measured for 60 to 120 mins by HTRF assay relative to control; details: time 70-130 min
[20] = molecular target: Tyrosine-protein kinase CSK (Homo sapiens) (UniProt P41240); test: Inhibition of CSK (unknown origin) at 1 uM preincubated for 10 mins followed by substrate addition measured for 60 to 120 mins by HTRF assay relative to control; details: time 70-130 min
CDK7/Cyclin H/MNAT1 = CDK7/Cyclin H/MNAT1 (Homo sapiens, UniProt P50613); test: Inhibition of CDK7/Cyclin H/MAT1 (unknown origin) preincubated for 10 mins followed by substrate addition measured for 60 to 120 mins by HTRF assay; format: protein-complex assay
[21] = molecular target: Cyclin-dependent kinase 13/Cyclin-K (Homo sapiens) (UniProt Q14004+O75909); test: Inhibition of CDK13/Cyclin K (unknown origin) at 1 uM preincubated for 10 mins followed by substrate addition measured for 60 to 120 mins by HTRF assay relative to control; format: protein-complex assay; details: time 70-130 min
Sequence of Cyclin-dependent kinase 13/Cyclin-K (Homo sapiens) (O75909 whole entry, looked up): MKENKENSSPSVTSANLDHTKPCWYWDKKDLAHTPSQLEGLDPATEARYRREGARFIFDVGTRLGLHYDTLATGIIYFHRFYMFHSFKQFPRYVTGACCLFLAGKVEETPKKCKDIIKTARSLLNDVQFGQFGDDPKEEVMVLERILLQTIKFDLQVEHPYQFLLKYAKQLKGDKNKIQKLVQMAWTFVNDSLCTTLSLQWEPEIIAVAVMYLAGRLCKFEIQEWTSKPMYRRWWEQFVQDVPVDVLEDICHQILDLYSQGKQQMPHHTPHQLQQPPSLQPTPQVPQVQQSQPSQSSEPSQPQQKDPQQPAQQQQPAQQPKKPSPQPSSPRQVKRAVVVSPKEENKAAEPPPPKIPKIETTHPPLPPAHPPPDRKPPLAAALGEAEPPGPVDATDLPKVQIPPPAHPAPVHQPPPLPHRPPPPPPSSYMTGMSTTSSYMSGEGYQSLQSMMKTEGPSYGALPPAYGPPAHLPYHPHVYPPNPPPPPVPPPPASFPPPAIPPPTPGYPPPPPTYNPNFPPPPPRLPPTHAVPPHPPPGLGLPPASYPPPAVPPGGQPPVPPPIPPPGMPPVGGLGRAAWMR
Sequence of Cyclin-dependent kinase 13/Cyclin-K (Homo sapiens) (Q14004 whole entry, looked up): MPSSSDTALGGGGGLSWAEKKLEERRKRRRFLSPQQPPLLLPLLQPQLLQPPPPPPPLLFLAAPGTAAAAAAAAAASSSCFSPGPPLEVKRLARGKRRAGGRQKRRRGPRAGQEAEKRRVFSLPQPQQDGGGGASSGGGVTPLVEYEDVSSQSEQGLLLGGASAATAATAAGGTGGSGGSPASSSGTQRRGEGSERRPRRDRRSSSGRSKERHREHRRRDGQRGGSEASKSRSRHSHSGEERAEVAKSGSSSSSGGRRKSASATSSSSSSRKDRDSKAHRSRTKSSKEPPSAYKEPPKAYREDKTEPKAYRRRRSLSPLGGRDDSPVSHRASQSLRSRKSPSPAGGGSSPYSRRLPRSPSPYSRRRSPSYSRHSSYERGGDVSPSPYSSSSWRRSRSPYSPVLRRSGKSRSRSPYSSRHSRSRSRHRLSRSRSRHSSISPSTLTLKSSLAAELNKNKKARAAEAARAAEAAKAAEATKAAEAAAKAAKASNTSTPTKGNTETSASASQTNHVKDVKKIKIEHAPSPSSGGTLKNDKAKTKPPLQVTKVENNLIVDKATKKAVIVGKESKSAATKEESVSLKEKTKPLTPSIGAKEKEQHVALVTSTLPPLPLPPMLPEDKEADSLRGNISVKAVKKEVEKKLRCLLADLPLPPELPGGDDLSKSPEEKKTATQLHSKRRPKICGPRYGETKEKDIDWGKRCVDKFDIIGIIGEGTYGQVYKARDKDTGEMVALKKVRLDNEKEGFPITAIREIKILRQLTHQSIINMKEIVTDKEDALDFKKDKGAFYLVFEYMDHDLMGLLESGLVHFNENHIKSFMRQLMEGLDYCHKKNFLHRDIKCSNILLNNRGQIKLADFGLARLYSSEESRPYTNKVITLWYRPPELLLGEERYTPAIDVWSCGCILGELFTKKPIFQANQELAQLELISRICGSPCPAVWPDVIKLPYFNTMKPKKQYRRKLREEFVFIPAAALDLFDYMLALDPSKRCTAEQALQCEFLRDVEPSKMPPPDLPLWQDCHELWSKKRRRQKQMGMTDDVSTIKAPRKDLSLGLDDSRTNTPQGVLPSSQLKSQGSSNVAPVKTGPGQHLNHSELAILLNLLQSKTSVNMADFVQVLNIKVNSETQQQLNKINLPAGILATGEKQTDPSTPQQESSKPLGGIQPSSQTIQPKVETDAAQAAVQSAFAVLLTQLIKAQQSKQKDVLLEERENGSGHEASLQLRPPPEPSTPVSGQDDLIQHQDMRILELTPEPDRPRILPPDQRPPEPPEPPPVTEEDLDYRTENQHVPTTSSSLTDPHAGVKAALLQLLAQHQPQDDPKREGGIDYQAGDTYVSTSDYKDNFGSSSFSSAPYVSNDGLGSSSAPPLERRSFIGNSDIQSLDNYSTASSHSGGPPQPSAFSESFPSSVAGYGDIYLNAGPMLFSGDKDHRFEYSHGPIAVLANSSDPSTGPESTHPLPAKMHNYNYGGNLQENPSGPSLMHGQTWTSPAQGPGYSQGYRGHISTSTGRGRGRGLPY

HL-60 = test: Induction of apoptosis in human HL-60 cells assessed as viable cells at 1 uM incubated for 48 hrs by annexin V-FITC/PI staining based flow cytometry (reference value: 96.5 %); format: functional; details: read-out: Activity
[22] = molecular target: Muscle, skeletal receptor tyrosine-protein kinase (Homo sapiens) (UniProt O15146); test: Inhibition of MUSK (unknown origin) at 1 uM preincubated for 10 mins followed by substrate addition measured for 60 to 120 mins by HTRF assay relative to control; details: time 70-130 min
[23] = molecular target: CDK4/Cyclin D3 (Homo sapiens) (UniProt P11802+P30281); test: Inhibition of CDK4/Cyclin D3 (unknown origin) at 1 uM preincubated for 10 mins followed by substrate addition measured for 60 to 120 mins by HTRF assay relative to control; format: protein-complex assay; details: time 70-130 min
[24] = molecular target: NT-3 growth factor receptor (Homo sapiens) (UniProt Q16288); test: Inhibition of TRKC (unknown origin) at 1 uM preincubated for 10 mins followed by substrate addition measured for 60 to 120 mins by HTRF assay relative to control; details: time 70-130 min

NC(=O)c1cccc(-c2cnc3[nH]ccc3c2)c1
MRT [1]: 2.47 h | pIC50 [2]: < 6.00 | CL/F [3]: 285 mL/min/kg | inhibition [4]: 1.59% | inhibition [5]: 0% | inhibition [6]: 0% | inhibition [7]: 13.5% | inhibition [8]: 26.7% | inhibition [9]: 15.8% | inhibition [10]: 0% | inhibition [11]: 0% | GI50 (A549): > 50000 nM | inhibition [12]: 14.9% | GI50 (MV4-11): 4610 nM | inhibition [13]: 3.99% | pIC50 (CDK9/cyclin T1): 6.15 | Cmax [14]: 231 ng/mL | inhibition [15]: 4.02% | T [16]: 61 °C | Activity [17]: Active | inhibition [18]: 21.6% | Activity (C1498): Dose-Dependent Effect | inhibition [19]: 0% | inhibition [20]: 0% | pIC50 (CDK7/Cyclin H/MNAT1): 6.37 | inhibition [21]: 9.63% | viability at 1 µM (HL-60): 93.3% | inhibition [22]: 3.63% | inhibition [23]: 7.02% | inhibition [24]: 10.8%
